Data published in patent US20170240556A1, “BIFLUORODIOXALANE-AMINO-BENZIMIDAZOLE KINASE INHIBITORS FOR THE TREATMENT OF CANCER, AUTOIMMUNEINFLAMMATION AND CNS DISORDERS” (4SC DISCOVERY GMBH, priority 2012, published 2017).
Read-outs that look alike come from different tables or passages of the source.

What was measured:
Assay in all cases: Proliferation Assay
Format in all cases: cell-based
SKMEL5 (skin) = settings: Homo sapiens, SK-MEL-5, 72 h, read-out: IC50 inhibition of cell growth
Description: (§1) For the determination of the inhibitory capacity of compounds of the present invention (in the following: “test compound(s)”) on cell growth, cancer cells were seeded into microtitre plates, treated with different concentrations of test compound or left untreated, and after 72 h the protein content was determined as an equivalent for the cell number.
(§2) Test compounds were dissolved in 100% DMSO and predilutions in cell culture medium were prepared with a final concentration of 0.1% DMSO in medium. The cell culture medium for dilution of the test compounds, consecutive culturing of cell lines and usage during the assay was a cell line specific medium as recommended by the cell line supplier and identical for all three applications mentioned above. After a 24-hour pre-growth period of the seeded cancer cells, the test compound containing media or medium containing 0.1% DMSO as control was added to the cells. The cells were allowed to grow at 37° C. for 72 hours. In addition, all experiments contained a few plates with cells that were processed for measurement immediately after the 24 hours recovery period. These plates contained information about the cell number that existed before treatment, at time zero, and served to calculate the cytotoxicity and/or growth inhibitory effects.
(§3) After treatment, cells were precipitated by addition of 10% TCA (trichloracetic acid). Prior to fixation, the media was aspirated. After an hour of incubation at 4° C. the plates were washed twice with 400 μl of deionized water. Cells were then stained with 100 μl of a 0.08% wt/v SRB (sulforhodamine). The plates were allowed to sit for at least 30 min and washed six times with 1% acetic acid to remove unbound staining agent. The plates were left to dry at room temperature and bound SRB was solubilized with 100 μl of 10 mM Tris base. Measurement of optical density was performed at 560 nm on a Victor 2 plate reader (Perkin Elmer, Germany).
(§4) One common way to express the effect of an anticancer agent is to measure cell viability and survival in the presence of the test agent as % Treated/Control×100. The relationship between the viability and dose is called a dose response curve. Those dose response curves were determined by using algorithms developed by Oncolead GmbH & Co. KG, Munich, Germany, that can be compared to commercial applications, e.g. XLfit™ (ID Business Solutions Ltd., Guildford, UK) algorithm “205”.

[1] = tested on: HT1080 (connective tissue); settings: Homo sapiens, HT-1080, 72 h, read-out: IC50 inhibition of cell growth
Description: as §1, §2, §3, §4

22RV1 (prostate) = settings: Homo sapiens, 72 h, read-out: IC50 inhibition of cell growth
Description: as §1, §2, §3, §4

HT29 (colon) = settings: Homo sapiens, HT-29, 72 h, read-out: IC50 inhibition of cell growth
Description: as §1, §2, §3, §4

CLS439 (bladder) = settings: 72 h, read-out: IC50 inhibition of cell growth
Description: as §1, §2, §3, §4

MIAPACA2 (pancreas) = settings: Homo sapiens, MIA PaCa-2, 72 h, read-out: IC50 inhibition of cell growth
Description: as §1, §2, §3, §4

T24 (bladder) = settings: 72 h, read-out: IC50 inhibition of cell growth
Description: as §1, §2, §3, §4

IGROV1 (ovary) = settings: Homo sapiens, IGROV-1, 72 h, read-out: IC50 inhibition of cell growth
Description: as §1, §2, §3, §4

A549 (lung) = settings: Homo sapiens, 72 h, read-out: IC50 inhibition of cell growth
Description: as §1, §2, §3, §4

PANC1 (pancreas) = settings: Homo sapiens, PANC-1, 72 h, read-out: IC50 inhibition of cell growth
Description: as §1, §2, §3, §4

OVCAR3 (ovary) = settings: Homo sapiens, OVCAR-3, 72 h, read-out: IC50 inhibition of cell growth
Description: as §1, §2, §3, §4

NCIH82 (lung) = settings: Homo sapiens, NCI-H82, 72 h, read-out: IC50 inhibition of cell growth
Description: as §1, §2, §3, §4

RD (muscle) = settings: 72 h, read-out: IC50 inhibition of cell growth
Description: as §1, §2, §3, §4

JIMT1 (breast) = settings: Homo sapiens, JIMT-1, 72 h, read-out: IC50 inhibition of cell growth
Description: as §1, §2, §3, §4

786O (kidney) = settings: Homo sapiens, 786-0, 72 h, read-out: IC50 inhibition of cell growth
Description: as §1, §2, §3, §4

SKHEP1 (liver) = settings: Homo sapiens, SK-HEP1, 72 h, read-out: IC50 inhibition of cell growth
Description: as §1, §2, §3, §4

CASKI (cervix) = settings: Homo sapiens, Ca-Ski, 72 h, read-out: IC50 inhibition of cell growth
Description: as §1, §2, §3, §4

HS578T (breast) = settings: Homo sapiens, Hs-578T, 72 h, read-out: IC50 inhibition of cell growth
Description: as §1, §2, §3, §4

HEPG2 (liver) = settings: Homo sapiens, 72 h, read-out: IC50 inhibition of cell growth
Description: as §1, §2, §3, §4

DLD1 (colon) = settings: Homo sapiens, DLD-1, 72 h, read-out: IC50 inhibition of cell growth
Description: as §1, §2, §3, §4

HELA (cervix) = settings: Homo sapiens, 72 h, read-out: IC50 inhibition of cell growth
Description: as §1, §2, §3, §4

OVCAR4 (ovary) = settings: Homo sapiens, OVCAR-4, 72 h, read-out: IC50 inhibition of cell growth
Description: as §1, §2, §3, §4

SKMEL28 (skin) = settings: Homo sapiens, SK-MEL-28, 72 h, read-out: IC50 inhibition of cell growth
Description: as §1, §2, §3, §4

IMR90 (lung) = settings: Homo sapiens, IMR-90, 72 h, read-out: IC50 inhibition of cell growth
Description: as §1, §2, §3, §4

J82 (bladder) = settings: 72 h, read-out: IC50 inhibition of cell growth
Description: as §1, §2, §3, §4

A204 (muscle) = settings: Homo sapiens, 72 h, read-out: IC50 inhibition of cell growth
Description: as §1, §2, §3, §4

`COc1cccc(C(=O)Nc2nc3cc4c(cc3[nH]2)OC(F)(F)O4)c1` [Compound 56, N-(2,2-difluoro-5H-[1,3]dioxolo[4′,5′:4,5]benzo[1,2-d]imidazol-6-yl)-3-methoxybenzamide] showed an IC50 (SKMEL5 (skin); SKMEL5 (skin)) of at most 1000 nM, an IC50 (SKMEL5 (skin); SKMELS (skin)) of at most 100 nM and an IC50 [1] of at most 1000 nM. It also gave an IC50 (22RV1 (prostate)) of at most 1000 nM, an IC50 (HT29 (colon)) of at most 1000 nM and an IC50 (CLS439 (bladder)) of at most 1000 nM. The IC50 (MIAPACA2 (pancreas)) was at most 1000 nM, the IC50 (T24 (bladder)) was at most 1000 nM and the IC50 (IGROV1 (ovary)) was at most 1000 nM. For the same molecule, the IC50 (A549 (lung)) was at most 1000 nM, the IC50 (PANC1 (pancreas)) was at most 1000 nM and the IC50 (OVCAR3 (ovary)) was at most 1000 nM. The IC50 (NCIH82 (lung)) was at most 1000 nM, the IC50 (RD (muscle)) was at most 1000 nM and the IC50 (JIMT1 (breast)) was at most 1000 nM. It also gave an IC50 (786O (kidney)) of at most 1000 nM, an IC50 (SKHEP1 (liver)) of at most 1000 nM and an IC50 (CASKI (cervix)) of at most 1000 nM. For the same molecule, the IC50 (HS578T (breast)) was at most 1000 nM, the IC50 (HEPG2 (liver)) was at most 1000 nM and the IC50 (DLD1 (colon)) was at most 1000 nM. The IC50 (HELA (cervix)) was at most 1000 nM, the IC50 (OVCAR4 (ovary)) was at most 1000 nM and the IC50 (SKMEL28 (skin)) was at most 1000 nM. For the same molecule, the IC50 (IMR90 (lung)) was at most 1000 nM, the IC50 (J82 (bladder)) was at most 1000 nM and the IC50 (A204 (muscle)) was at most 1000 nM.
